From patent US20240174690A1, “ANNULATED 2-AMINO-3-CYANO THIOPHENES AND DERIVATIVES FOR THE TREATMENT OF CANCER” (BOEHRINGER INGELHEIM INTERNATIONAL GMBH, priority 2021, published 2024)
Values after ≈ are worked out from the molar mass of the structure shown. Read-outs that look alike come from different tables or passages of the source.

Tests used:
[1] = system: KRAS G12C-dependent Ba/F3 cells; test: Ba/F3 proliferation assay, KRAS G12C; assay type: cell-based; settings: AlamarBlue
Outline: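 Transforming KRAS G12 mutants replaced IL-3 dependence in retrovirally engineered Ba/F3 cells, with puromycin omitted about ten days before testing. Growth under compound was quantified with an AlamarBlue fluorescent viability stain, in duplicate, by curve fitting.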

[2] = Solubility measurement (DMSO solution method), McIlvaine buffer pH 4.5 or 6.8; assay type: physicochemical; settings: DMSO stock diluted to 250 μM, 24 h shaking at ambient temperature; for solubility at 24 h: aqueous buffer, kinetic from dmso stock
Outline: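 DMSO stock diluted into McIlvaine buffer, pH 4.5 or 6.8, to 250 µM final, shaken 24 h at ambient temperature. Precipitate removed by filtration; filtrate quantified by LC-UV against a fully dissolved reference in acetonitrile/water 1:1.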

NCI-H358 cells = test: NCI-H358 CTG proliferation assay (120 h) (NSCLC, G12C); assay type: cell-based, human; settings: assay 2, CTG, read-out: H358 (assay 2) IC50
Outline: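 NCI-H358 cells (KRAS G12C) were seeded at 2000/well (assay 1) or 200/well (assay 2) in RPMI-1640 + 10% FCS and dosed with a logarithmic series, DMSO-normalized. After 120 h, viability was read by CellTiter-Glo luminescence as percent of DMSO control, with a T0 read at dosing. IC50 came from a four-parameter fit.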

[3] = Caco-2 assay (permeability PappAB, PappBA, efflux ratio); assay type: in vitro ADME; settings: human, Caco-2, 10 μM test compound, pH 7.4; for efflux ratio at 90 min, 10 μM: efflux ratio PappBA/PappAB, read-out: Caco ER; for Papp A→B at 90 min, 10 μM: apical to basolateral
Outline: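 Confluent Caco-2 monolayers on filter supports, 0.25% BSA in both donor and receiver buffer; transport measured a-b and b-a. After 25-30 min preincubation at 37 °C, samples at 0, 30, 60, 90 min quantified by HPLC/MS/MS. Papp from receiver amount per time, filter area and initial donor concentration; efflux ratio = PappBA/PappAB.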

[4] = McIlvaine buffer pH 4.5, read-out: solubility pH 4.5
[5] = McIlvaine buffer pH 6.8, read-out: solubility pH 6.8

| Structure (SMILES) | IC50 ([1]; Mus musculus, BaF3, 72 h) [nM] | solubility at 24 h [2, 4] [µg/mL] | solubility at 24 h [2, 5] [µg/mL] | IC50 (NCI-H358 cells; Homo sapiens) [nM] | IC50 ([1]; 72 h) [nM] | solubility pH 4.5 ([2]; McIlvaine buffer pH 4.5) [μg/ml] | solubility pH 6.8 ([2]; McIlvaine buffer pH 6.8) [μg/ml] | IC50 (NCI-H358 cells) [nM] | efflux ratio at 90 min, 10 μM [3] | Papp A→B at 90 min, 10 μM [3] [×10⁻⁶ cm/s] |
| --- | --- | --- | --- | --- | --- | --- | --- | --- | --- | --- |
| C[C@H](Oc1nc(-c2noc3c2CCC[C@@]32CCCc3sc(N)c(C#N)c32)nc(N2CCN(C)C3(CC3)C2)c1Cl)[C@@H]1C[C@@H](F)CN1C [II-176] | 1310 | > 140 | < 1 | 1640 | – | – | – | – | – | – |
| C[C@H](Oc1cc(-n2ccc(C(=O)N[C@H]3CCOC3)n2)nc(-c2noc3c2CCC[C@@]32CCCc3sc(N)c(C#N)c32)n1)[C@@H]1CCCN1C [II-193] | – | – | – | – | 2 | 15 | <1 | 1 | – | – |
| C[C@H](Oc1cc(N2CCN(C)C3(CCOC3)C2)nc(-c2noc3c2CCC[C@@]32CCCc3sc(N)c(C#N)c32)n1)[C@@H]1C[C@@H](F)CN1C (stereo partly drawn) [II-151] | 393 | > 161 | < 1 | – | – | – | – | – | 2 | – |
| C[C@H](Oc1cc(-c2ccn(C)n2)nc(-c2noc3c2CCC[C@@]32CCCc3sc(N)c(C#N)c32)n1)[C@@H]1C[C@H](F)CN1C [II-144] | 2 | 105 (≈ 178 µM) | < 1 | – | – | – | – | – | 0.7 | 15 |
| C[C@H](Oc1cc(-n2cc3ccn(C[C@H]4CCOC4)c(=O)c3n2)nc(-c2noc3c2CCC[C@@]32CCCc3sc(N)c(C#N)c32)n1)[C@@H]1CCCN1C [II-204] | 11 | 4 (≈ 5.65 µM) | 5 (≈ 7.06 µM) | 5 | – | – | – | – | – | – |
| C[C@H](Oc1cc([C@H]2CCNC2)nc(-c2noc3c2CCC[C@@]32CCCc3sc(N)c(C#N)c32)n1)[C@@H]1CCCN1C [II-163] | 373 | > 137 | > 133 | – | – | – | – | – | – | – |
| CO[C@H]1CCN(C)[C@@H]1[C@H](C)Oc1cc(-n2ccc(C(=O)N(C)C3COC3)n2)nc(-c2noc3c2CCC[C@@]32CCCc3sc(N)c(C#N)c32)n1 [II-199] | 3 | > 163 | 9 (≈ 12.9 µM) | 5 | – | – | – | – | – | – |
| CO[C@H]1CCN(C)[C@@H]1[C@H](C)Oc1cc(-n2ccc(C(=O)N[C@@H]3CCOC3)n2)nc(-c2noc3c2CCC[C@@]32CCCc3sc(N)c(C#N)c32)n1 [II-197] | 2 | > 173 | 5 (≈ 7.14 µM) | 1 | – | – | – | – | – | – |
| COCCNC(=O)c1ccn(-c2cc(O[C@@H](C)[C@@H]3[C@@H](OC)CCN3C)nc(-c3noc4c3CCC[C@@]43CCCc4sc(N)c(C#N)c43)n2)n1 [II-200] | 1 | > 163 | 4 (≈ 5.82 µM) | 3 | – | – | – | – | – | – |
| C[C@H](Oc1cc(N2CC3COCC(C2)N3)nc(-c2noc3c2CCC[C@@]32CCCc3sc(N)c(C#N)c32)n1)[C@@H]1CCCN1C [II-160] | 1720 | – | – | – | – | – | – | – | – | – |
| C[C@H](Oc1cc(-n2cc3c(n2)CNC3)nc(-c2noc3c2CCC[C@@]32CCCc3sc(N)c(C#N)c32)n1)[C@@H]1CCCN1C [II-168] | 62 | > 139 | > 128 | – | – | – | – | – | 39.5 | 1 |
| C[C@H](O)Cn1ncc(-c2cc(O[C@@H](C)[C@@H]3CCCN3C)nc(-c3noc4c3CCC[C@@]43CCCc4sc(N)c(C#N)c43)n2)n1 [II-134] | 41 | 116 (≈ 188 µM) | 105 (≈ 171 µM) | – | – | – | – | – | 8 | 4 |
| C[C@H](Oc1cc(N2CCN(C)C3(COC3)C2)nc(-c2noc3c2CCC[C@@]32CCCc3sc(N)c(C#N)c32)n1)[C@@H]1C[C@@H](F)CN1C [II-148] | 99 | > 146 | < 1 | – | – | – | – | – | 3.3 | 12 |
| C[C@H](Oc1cc(-n2cc3ccn([C@@H](C)c4ccccn4)c(=O)c3n2)nc(-c2noc3c2CCC[C@@]32CCCc3sc(N)c(C#N)c32)n1)[C@@H]1CCCN1C [II-205] | 19 | – | – | 18 | – | – | – | – | – | – |
| C[C@H]1CNCCCN1c1nc(-c2onc3c2CCC[C@@]32CCCc3sc(N)c(C#N)c32)cc(C(F)(F)F)n1 [I-15] | 930 | 1 (≈ 1.84 µM) | < 1 | – | – | – | – | – | – | – |
| C[C@H](Oc1cc(N2C[C@@H]3[C@@H](N)[C@@H]3C2)nc(-c2noc3c2CCC[C@@]32CCCc3sc(N)c(C#N)c32)n1)[C@@H]1CCCN1C [II-167] | 884 | > 153 | > 142 | – | – | – | – | – | 82.1 | 0.3 |
| C[C@H](Oc1cc(N2CCN(C)C3(CC3)C2)nc(-c2noc3c2CCC[C@@]32CCCc3sc(N)c(C#N)c32)n1)[C@@H]1C[C@@H](F)CN1C [II-149] | 333 | > 164 | < 1 | – | – | – | – | – | 1.2 | – |
| C[C@H](Oc1cc(-n2cc3c(n2)CCN(C)C3)nc(-c2noc3c2CCC[C@@]32CCCc3sc(N)c(C#N)c32)n1)[C@@H]1CCCN1C [II-141] | 134 | 123 (≈ 197 µM) | 83 (≈ 133 µM) | – | – | – | – | – | 7.9 | – |
| CC(C)[C@@H]1CN(c2cc(O[C@@H](C)[C@@H]3CCCN3C)nc(-c3noc4c3CCC[C@@]43CCCc4sc(N)c(C#N)c43)n2)CCN1 [II-166] | 386 | > 152 | > 147 | – | – | – | – | – | – | – |
| C[C@H](Oc1cc(N2C[C@H](C)N(C)[C@@H](C)C2)nc(-c2noc3c2CCC[C@@]32CCCc3sc(N)c(C#N)c32)n1)[C@@H]1CCCN1C [II-173] | 296 | > 144 | > 146 | – | – | – | – | – | 19.9 | 8.7 |
| CO[C@H]1CCN(C)[C@@H]1[C@H](C)Oc1cc(-n2ccc(CC(=O)NC(C)C)n2)nc(-c2noc3c2CCC[C@@]32CCCc3sc(N)c(C#N)c32)n1 [II-183] | 2 | 113 (≈ 165 µM) | 4 (≈ 5.83 µM) | – | – | – | – | – | – | – |
| CO[C@@H]1C[C@@H]([C@H](C)Oc2cc(-c3cnn(C)n3)nc(-c3onc4c3CCC[C@@]43CCCc4sc(N)c(C#N)c43)n2)N(C)C1 [I-17] | 40 | – | – | – | – | – | – | – | – | – |
| C[C@@H]1CN(c2cc(O[C@@H](C)[C@@H]3CCCN3C)nc(-c3noc4c3CCC[C@@]43CCCc4sc(N)c(C#N)c43)n2)CCN1 [II-161] | 910 | – | – | – | – | – | – | – | 47.6 | 0.4 |
| C[C@H](Oc1cc(-n2cncc3ccnc2-3)nc(-c2onc3c2CCC[C@@]32CCCc3sc(N)c(C#N)c32)n1)[C@@H]1CCCN1C [I-14] | 15 | 41 (≈ 67.5 µM) | < 1 | – | – | – | – | – | 0.8 | – |
| C[C@H](Oc1cc(N2CCN[C@@H](C)C2)nc(-c2noc3c2CCC[C@@]32CCCc3sc(N)c(C#N)c32)n1)[C@@H]1CCCN1C [II-162] | 526 | > 140 | > 137 | – | – | – | – | – | 57.6 | 0.3 |
| CNC1CCN(c2cc(O[C@@H](C)[C@@H]3CCCN3C)nc(-c3noc4c3CCC[C@@]43CCCc4sc(N)c(C#N)c43)n2)CC1 [II-214] | 1900 | > 121 | > 151 | – | – | – | – | – | – | – |
| C[C@H](Oc1cc(N2CCN(C)C3(CC3)C2)nc(-c2noc3c2CCC[C@@]32CCCc3sc(N)c(C#N)c32)n1)[C@@H]1CCCN1C [II-171] | 232 | > 150 | > 148 | – | – | – | – | – | 8.2 | 3 |
